# Source: PMC3472974, “The Bite of the Honeybee: 2-Heptanone Secreted from Honeybee Mandibles during a Bite Acts as a Local Anaesthetic in Insects and Mammals” (PLoS ONE, 2012)
# Legend:
# wax moth larvae (WML) [1] = assay: Locomotory pattern of tethered wax moth larvae after injection; type: in vivo, Galleria mellonella; conditions: 2.5 µL injected (8.15 mg per 1 g body weight), larger WML body weight 0.25 g
# Source text: To monitor the constant locomotory pattern of WML, the probe of a force-displacement transducer (FT-03C, Grass Instrument Company, USA), attached to a micromanipulator, was hooked onto the tail of the WML, while the head was carefully pinned to a wax substrate, [14]. The electrical signal generated by the rhythmic force produced during locomotion was amplified and fed to a computer through a data acquisition card interface (Keithley KPCI 3102, Keithley Instruments, Cleveland, OH, USA). Software designed using the facilities of Labview (Labview 5.1, National Instruments USA) permitted analysis of the recorded data.
# hNav1.2 channels = target: T1, hNav1.2 channels (Homo sapiens, UniProt Q99250); assay: Patch-clamp (PatchXpress 7000A) on transfected CHO cells, hNav1.2; type: cell-based; conditions: for IC50: CHO cells, n = 6, mean ± SEM, 2-H exposure limited to 3 min; for times less active than lidocaine: hNav1.2
# T1 construct: expressed in transfected cells; host or cells: CHO-K1 (ATCC CCL-61)
# Source text: To test whether 2-H can act by blocking VGNaCs, the PatchXpress 7000A was used. Mammalian CHO (Chinese hamster ovary) transfected with ion hNav1.2 and hNav1.6 channels cDNAs (SCN2A and SCN8A genes) were exposed to 2-H under both tonic and phasic conditions. The mammalian CHO-K1 epithelial embryonic cell line (ATCC number CCL-61) from Cricetulus griseus was obtained from ATCC, Manassas, VA. CHO-K1 cells were transfected with either hNav1.2 or hNav1.6 channel cDNA (SCN2A and SCN8A genes, respectively) and were exposed to 2-H under both tonic and phasic conditions.
# The effects of 2-H were evaluated on hNav1.2 at 0.73, 1.46, 2.19, and 2.92 mg/mL and on hNav1.6 channels at 0.1, 0.36, 0.73, and 1.46 mg/mL, with each concentration tested in at least six cells (n = 6). Cells were exposed to each concentration of 2-H and measurements of the inward current were obtained within the first 3 min of exposure. […] Since the PatchXpress has open cell chambers where the testing occurs, there is no way to hermetically seal the experiment.
# Based on this analysis, we estimated the IC50.
# wax moth larvae (WML) [2] = assay: GC-MS quantification of 2-H in wax moth larvae bitten by honeybees; type: in vivo, Galleria mellonella; conditions: extracted after full recovery, n = 10
# Source text: We measured the 2-H content of the following types of samples: a) isolated honeybee mandibular glands (n = 30); b) wax moth larvae (WML; body weight of around 0.01 g) that had been bitten by honeybees (n = 30) –2-H extracted immediately after paralysis; c) WML that had been bitten by honeybees (n = 10) –2-H extracted after full recovery; d) non-bitten WML (controls, n = 10).
# To optimize the detection of 2-H, all samples were 1) treated with liquid nitrogen in order to stop any enzymatic process and ensure complete lyses of cell walls and then 2) extracted with ethanol. The extracts were centrifuged, filtered, and stored at −20°C until analysis.
# Chromatographic analyses were carried out on a Hewlett Packard 6890 gas chromatographic model hyphenated to a Hewlett Packard 5973 mass selective detector using electron impact (70 eV) as the ionization source, further equipped with an Agilent 6890 autosampler. An HP 5MS (30 m×0.25 mm; film thickness 0.25 µm) column was used for the separations. Helium was used as the carrier gas (flow 0.8 ml/min). […] Thus, under the above chromatographic conditions, the Rt of 2-H was 8.47 min and the ions monitored at EI (70eV, full scan) were m/z 43, 58, 71, 85, 99 and 114. Quantification, however, was performed at Selected Ion Monitoring (SIM) mode and the ions were monitored at m/z 58 and 71. […]
# T1 sequence (Q99250 whole entry): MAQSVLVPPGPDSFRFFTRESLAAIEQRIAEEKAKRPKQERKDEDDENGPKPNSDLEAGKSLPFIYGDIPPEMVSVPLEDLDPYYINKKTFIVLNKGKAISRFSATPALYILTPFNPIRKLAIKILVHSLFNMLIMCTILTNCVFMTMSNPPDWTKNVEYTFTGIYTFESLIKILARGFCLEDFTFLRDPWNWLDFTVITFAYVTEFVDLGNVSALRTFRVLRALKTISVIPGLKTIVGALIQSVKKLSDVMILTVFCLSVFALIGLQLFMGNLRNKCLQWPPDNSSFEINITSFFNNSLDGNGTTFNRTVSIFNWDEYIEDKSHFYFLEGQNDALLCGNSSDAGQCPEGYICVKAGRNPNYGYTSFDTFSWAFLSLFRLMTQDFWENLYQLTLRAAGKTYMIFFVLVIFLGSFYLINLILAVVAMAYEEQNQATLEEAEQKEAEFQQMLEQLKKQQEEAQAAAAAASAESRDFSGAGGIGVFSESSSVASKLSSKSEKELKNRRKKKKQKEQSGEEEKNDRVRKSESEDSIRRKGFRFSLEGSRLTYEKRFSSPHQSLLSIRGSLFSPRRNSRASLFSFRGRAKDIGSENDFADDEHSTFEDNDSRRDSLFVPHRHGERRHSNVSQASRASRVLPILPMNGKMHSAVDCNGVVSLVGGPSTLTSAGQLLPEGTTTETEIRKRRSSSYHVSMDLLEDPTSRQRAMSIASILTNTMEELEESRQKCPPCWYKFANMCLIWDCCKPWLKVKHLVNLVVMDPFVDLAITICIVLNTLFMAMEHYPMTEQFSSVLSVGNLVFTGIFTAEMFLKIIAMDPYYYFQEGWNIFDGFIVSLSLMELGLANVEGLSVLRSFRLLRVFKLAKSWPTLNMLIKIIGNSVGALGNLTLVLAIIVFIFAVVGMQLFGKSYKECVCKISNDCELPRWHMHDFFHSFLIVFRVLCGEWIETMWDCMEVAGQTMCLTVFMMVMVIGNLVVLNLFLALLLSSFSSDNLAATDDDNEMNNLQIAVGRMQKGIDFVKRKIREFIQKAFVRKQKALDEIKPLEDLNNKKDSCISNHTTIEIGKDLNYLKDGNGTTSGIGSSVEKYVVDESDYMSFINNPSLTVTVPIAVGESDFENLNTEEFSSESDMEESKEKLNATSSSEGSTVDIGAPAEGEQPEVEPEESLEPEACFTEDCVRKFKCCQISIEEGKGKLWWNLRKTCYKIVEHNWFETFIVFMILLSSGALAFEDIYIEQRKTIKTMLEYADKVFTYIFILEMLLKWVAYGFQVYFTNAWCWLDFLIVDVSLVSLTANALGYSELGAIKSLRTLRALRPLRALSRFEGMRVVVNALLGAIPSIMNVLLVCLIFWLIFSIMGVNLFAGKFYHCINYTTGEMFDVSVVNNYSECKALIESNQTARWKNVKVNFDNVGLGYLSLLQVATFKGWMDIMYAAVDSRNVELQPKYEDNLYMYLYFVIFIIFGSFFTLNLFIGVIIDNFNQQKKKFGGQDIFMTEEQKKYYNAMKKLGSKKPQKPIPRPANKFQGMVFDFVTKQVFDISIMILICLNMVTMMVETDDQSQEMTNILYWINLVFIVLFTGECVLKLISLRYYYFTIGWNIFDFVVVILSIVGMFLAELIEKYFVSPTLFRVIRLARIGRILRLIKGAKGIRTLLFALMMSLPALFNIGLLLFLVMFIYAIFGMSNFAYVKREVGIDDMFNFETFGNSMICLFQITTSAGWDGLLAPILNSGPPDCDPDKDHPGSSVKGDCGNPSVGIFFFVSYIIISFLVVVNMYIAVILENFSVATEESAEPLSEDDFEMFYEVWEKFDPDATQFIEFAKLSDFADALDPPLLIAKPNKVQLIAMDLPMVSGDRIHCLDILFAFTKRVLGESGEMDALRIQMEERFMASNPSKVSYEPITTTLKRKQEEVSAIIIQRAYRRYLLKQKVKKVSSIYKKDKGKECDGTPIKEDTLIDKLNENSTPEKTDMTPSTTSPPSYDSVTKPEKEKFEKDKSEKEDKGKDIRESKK
smiles,measurement,setting,value
"CCCCCC(C)=O [2-H, 2-heptanone]",effect on locomotory pattern,wax moth larvae (WML) [1],body movement stopped abruptly
same,recovery time of locomotory pattern,wax moth larvae (WML) [1]; n = 8,87.62 min
same,IC50,hNav1.2 channels; Phasic Experiment,6.57 mM
same,IC50,hNav1.2 channels; Tonic Experiment,9.02 mM
same,times less active than lidocaine,hNav1.2 channels; phasic experiments,7.50 times
same,times less active than lidocaine,hNav1.2 channels; tonic experiments,3.97 times
same,2-H detected in fully-recovered WML,wax moth larvae (WML) [2],no 2-H
